Results from article PMC10072326, “Promising anticancer agents based on 8-hydroxyquinoline hydrazone copper(II) complexes” (Frontiers in Chemistry, 2023).

Tests used:
DNA-EB system = assay: DNA-ethidium bromide fluorescence competition; type: binding
Protocol: The fluorescence emission experiments were carried out in a Perkin Elmer LS 55 spectrofluorimeter. A pulsed Xenon lamp (50 Hz) provided the excitation light. A thermostated water bath recycler linked to the cell holder provided temperature control within ± 0.1 °C. The measurements were done in a 1000 µL quartz cell with an optical path length of 1.0 cm with the complexes solution added directly to the DNA-EB (ethidium bromide) solution in the cell. A glass syringe connected to a Mitutoyo micrometric screw added accurate volumes each time (one complete turn of the screw is 8.2 µL, 1/50 of a turn is the minimum possible addition).
Moreover, this complex reduces the emission of the EB-DNA system to ca. 40 % of its initial intensity with an interaction constant of (1.18 ± 0.03) × 10^4 M^−1 (Fig. S22, constant calculated with HypSpec2014 (28)).
Considering the results of the melting temperature assay, the DNA-EB fluorescence quenching was also used to test complex 7. […] The accessible fraction fa was determined as 0.26 and the interaction constant as (1.44 ± 0.02) ×10^5 M^−1 (HypSpec2014 (28)). As EB has a second mode of interaction with DNA due to electrostatic interactions on the external part of the biomolecule backbone (30), it is possible that the complexes are only being able to reach for this fraction. […]

A-375 cells [1] = assay: γH2AX staining for DNA double-strand breaks; type: cell-based
Protocol: Indeed, we examined whether DNA nicks induced by the complexes on pure plasmid DNA would reflect in cell culture as increased DNA break formation. To test this, A-375 cells were stained using γH2AX, which is a common marker for DSBs (Figure 7B). […] For complex 1 the opposite effect was observed and despite its lower ability to induce ROS formation, the DSB were the highest among the group.
(§1) 5 × 10^4 number of A-375 and A-549 cells were seeded on 12-well plates, and the next day cells were treated with either copper complexes (calculated IC70 values) or cisplatin (15 μM). Following 48 h of treatment, cells were trypsinized, centrifuged and resuspended in PBS solution supplemented with 1% fetal bovine serum (FBS) (10^6 cells/mL).
The Muse ɣH2A.X Activation Dual Detection Kit (Luminex, MCH200101) protocols were followed with minor changes. 1 × 10^5 cells were mixed with ice-cold 1X Fixation Buffer at the same volume for 5 min. Cells were centrifuged (600 g, 5 min), and the pellet was suspended with 100 μL of ice-cold 1X Permeabilization Buffer (10 min, on ice), and centrifuged again. The cell pellet was resuspended with 50 μL of antibody mixture of (20X) Anti-phospho-Histone H2A.X (Ser139), Alexa Fluor 555 and (20X) Anti-H2A.X, PECy5 antibodies. Following 30 min of antibody staining, cells were centrifuged and resuspended with 1X Assay Buffer. DNA breaks were analysed with Muse Cell Analyzer (Merck Millipore).

A-375 cells [2] = assay: Cytotoxicity with ROS scavenger NAC (SRB); type: cell-based; conditions: 10 mM NAC pre-treatment 2 h, co-treatment 72 h
From the text: (§2) Additionally, to assess whether the ROS induction contributed to the cytotoxicity triggered by these complexes, we used a ROS scavenger, N-acetyl-cysteine (NAC), in combination with 1, 3, 5 or 8. […] Indeed, it is also possible that the cytotoxicity induced by 5 is not by ROS, despite the induction observed in Figure 7A.
(§3) Figure S27- Protective mechanism of NAC against Cu(II) complexes. Addition of NAC can protect cells from the cytotoxic effects of the Cu(II) complexes A-375 (A) and A-549 (B) cells were pre-treated with 10 mM of ROS scavenger N-acetylcysteine (NAC) for 2 h, then co-treated with freshly prepared Cu(II) complexes (1, 3, 5 and 8) for 72 h. Cell viability was measured via SRB assay (2 biological replicates, each done in duplicate). The error bars represent standard error of the mean. Student t-test was used for statistical analysis, *p<0.05, **p<0.01

A-549 cells [3] = assay: Cytotoxicity with ROS scavenger NAC (SRB); type: cell-based; conditions: 10 mM NAC pre-treatment 2 h, co-treatment 72 h
From the text: as §2, §3

[4] = Thermodynamic solubility at pH 7.4; type: physicochemical; conditions: Cu(II) complexes; pH 7.40; 20 mM HEPES; 25.0°C
Protocol: Thermodynamic solubility (S) was measured for the new ligands, L^7 and L^8, since data for the rest of the series was previously reported (9), and for selected Cu(II) complexes: 1, 5 and 6. Solubility was measured for the saturated solutions in water at pH 7.40 in 20 mM HEPES at 25.0 ± 0.1 °C. The concentration was determined by UV-Vis spectrophotometry using the stock solutions of the compounds with known concentrations dissolved in 100% DMSO, 50% and 25% (v/v) DMSO/buffered aqueous solutions for the calibration.

A-375 cells [5] = assay: ROS activation via dihydroethidium staining, flow cytometry; type: cell-based; conditions: 48 h
From the text: (§4) Since reactive oxygen species appeared to be involved in the nicking activity of the complexes (Supplementary Figure S24), we investigated whether there was an increase in ROS formation in cells upon drug treatment. Dihydroethidium (DHE) is a reduced form of ethidium, after oxidation with superoxide (ROS), it is converted into 2-hydroxy ethidium, which is a chemical that emits red fluorescence and intercalates DNA. […] Similar results were obtained using A-549 cells, but with much milder induction of ROS except for 8, which remained high (Supplementary Figure S26).
as §1
(§5) Oxidative stress levels were assessed by Muse Oxidative Stress Kit (Luminex, MCH100111) using the same protocol as previously described (21).

A-375 cells [6] = assay: Apoptosis by Annexin V/7-AAD and Caspase 3/7 flow cytometry; type: cell-based; conditions: 48 h, Annexin-V and caspase 3/7
Protocol: To determine the mode of cell death, A-375 cells were incubated with the Cu complexes and cisplatin for 48 h and, induction of apoptosis was evaluated using both Annexin-V staining and activation of caspase 3/7 in response to drug treatment. While Annexin-V staining relies on the loss of plasma membrane asymmetry, caspases 3 and 7 are critical proteases, which are responsible for the cleavage of many cellular proteins. […] Similar results were obtained in A-549 cells (Supplementary Figure S28).
as §1
Annexin V & Dead Cell Kit (Luminex, MCH100105) protocols were followed for Annexin V activation. Briefly, 1 × 10^5 cells were stained with Annexin V and 7-AAD solution in a 1:1 ratio and incubated at room temperature for 20 min. The apoptotic cell population was evaluated with Muse Cell Analyzer (Merck Millipore).
Caspase-3/7 Kit (Luminex, MCH100108) protocols were followed for Caspase 3/7 staining. 2 × 10^5 cells were stained with 5 μL of Caspase 3/7 antibody (1:8 dilution in PBS) and incubated at room temperature for 30 min. Then, the cells were stained with 100 μL of 7-AAD antibody mixture (1:75 dilution with 1 × Assay Buffer) for 5 min. Caspase 3/7 and 7-AAD positivity were assessed with Muse Cell Analyzer (Merck Millipore).

A-549 cells [7] = assay: ROS activation via dihydroethidium staining, flow cytometry; type: cell-based
From the text: as §4, §1, §5

Structure (SMILES) | interaction constant (DNA-EB system; DNA-EB fluorescence quenching, HypSpec2014) | emission of the EB-DNA system, % of its initial intensity (DNA-EB system; titration 0 – 51.6 µM, HEPES pH 7.4) | DSB induction (γH2AX), in words (A-375 cells [1]) | effect of NAC on cytotoxicity (A-375 cells [2]) | effect of NAC on cytotoxicity (A-549 cells [3]) | thermodynamic solubility S 7.4 [4] | ROS positivity (A-375 cells [5]) | induction of apoptosis, in words (A-375 cells [6]) | ROS induction, in words (A-549 cells [7]) | DNA breaks (γH2AX) (A-375 cells [1]; 48 h)
CC(=O)[O-].O=C(NN=Cc1ccc2cccc([O-])c2n1)c1ccccc1.[Cu+2] [Complex 1, [Cu(HL^1)(AcO)]] | (1.18 ± 0.03) × 10^4 M^−1 | ca. 40% | highest levels of DSB induction | significantly reduced | significantly reduced |  |  |  |  | 
[Cu+2].[O-]C(=NN=Cc1ccc2cccc([O-])c2n1)c1ccc(F)cc1 [Complex 3, [Cu(L^3)]3] |  |  |  | significantly reduced | significantly reduced | < 1 µM | 60% | performed well |  | 
COc1ccc(C([O-])=NN=Cc2ccc3cccc([O-])c3n2)cc1.[Cu+2] [Complex 5, [Cu(L^5)]3] |  |  | highest levels of DSB induction |  |  |  | ~80% | triggered apoptosis only mildly | milder ROS induction | ~80%
